Here are results for 51 compounds from US12552800B2, “Compounds for diagnosis” (AC IMMUNE SA, priority 2020, dated 2026).

The test deals with T1, PD brain-derived a-syn aggregates (Homo sapiens, UniProt P37840).
T1 construct: from tissue; host or cells: human PD donor brain, sarkosyl-insoluble 100,000 x g pellet
The experiment in a line: Micro-radiobinding competition assay against Example-1 [^3H-1] (Table 8). Particulars: for Competition at 100 nM (%): 100 nM non-radiolabelled example compound vs Example-1 [^3H-1] ligand; for Competition at 100 nM (%) / Competition at 1 μM (%): human PD brain-derived a-syn aggregates; for Competition at 1 μM (%): 1 μM non-radiolabelled example compound vs Example-1 [^3H-1] ligand; for Ki: mean of Ki values in independent experiments using PD brain-derived homogenates from two different donors. Type of test: binding. The method, then: PD brain-derived a-syn aggregates were spotted onto microarray slides. The slides were incubated with the Example-1 [^3H-1] at 6 nM or 20 nM and the example compounds (non-radiolabelled) at 1 μM and 100 nM. In some cases, the non-radiolabelled example compounds were further assessed for a range of different concentrations, varying from 0.05 nM to 2 μM. After incubation, slides were washed and scanned by a real-time autoradiography system (BeaQuant, ai4R). Quantification of the signal was performed by using the Beamage image analysis software (ai4R). […] All measurements were performed with at least two technical replicates. For compounds tested in more than one experiment, the mean of the replicates or K; values in independent experiments is reported.
Results: Example compounds were assessed for their potency to compete with the binding of Example-1 [^3H-1] ligand to PD patient brain-derived a-syn aggregates. Results of the micro-radiobinding competition assay for the example compounds tested are shown in Table 8 as: % competition at 1 μM and 100 nM.

As to `COc1ccc(-n2cc3c(n2)CN(c2cccnc2)C3=O)cn1` [Example 130], the “Competition at 100 nM (%)” value was 74% and the “Competition at 1 μM (%)” value is recorded as 85%.
The corresponding values for `O=C1c2cn(-c3ccc(N4CCCC4)nc3)nc2CN1c1nccnc1F` [Example 42] are 57% and 89%.
For `O=C1c2cn(-c3ccc(N4CC[C@@H](F)C4)nc3)nc2CN1c1cncs1` [Example 126], in that order: 75% and 83%.
Regarding `N#Cc1ccc(N2Cc3nn(-c4ccc(N5CC[C@@H](F)C5)nc4)cc3C2=O)cn1` [Example 57], the “Competition at 100 nM (%)” value was found to be 88%.
In the case of `Cn1ccc(-n2cc3c(n2)CN(c2cccc(F)n2)C3=O)n1` [Example 145], the “Competition at 100 nM (%)” value is 46% and the “Competition at 1 μM (%)” value is given as 76%.
For `COc1ccc(N2Cc3nn(-c4ccc(N5CC[C@@H](F)C5)nc4)cc3C2=O)nc1` [Example 58], in that order: 85% and 98%.
On to `N#Cc1ccc(N2Cc3nn(-c4ccc(N5CC[C@H](F)C5)nc4)cc3C2=O)cc1` [Example 59], for which the “Competition at 100 nM (%)” value was 86%.
For the compound `N#Cc1ccc(N2Cc3nn(-c4ccc(N5CC[C@@H](F)C5)nc4)cc3C2=O)cc1N` [Example 24], the “Competition at 1 μM (%)” value is listed as 97%.
Take `Cc1ccc(N2Cc3nn(-c4ccc(N5CC[C@H](F)C5)nc4)cc3C2=O)cn1` [Example 11]: the “Competition at 100 nM (%)” value came out at 50% and the “Competition at 1 μM (%)” value came to 98%.
For `O=C1c2cn(-c3ccc(N4CC[C@@H](F)C4)nc3)nc2CN1c1cccc(O)c1` [Example 177], in that order: 76% and 100%.
The corresponding values for `COc1ccnc(N2Cc3nn(-c4ccc(N5CC[C@@H](F)C5)nc4)cc3C2=O)c1` [Example 76] are 69% and 93%.
For `O=C1c2cn(-c3ccc(NC4CC(F)C4)nc3)nc2CN1c1ccccn1` (stereo not drawn) [Example 89], in that order: 29% and 75%.
For the compound `COc1ccc(-n2cc3c(n2)CN(c2cncc(F)n2)C3=O)cn1` [Example 147], the “Competition at 100 nM (%)” value is listed as 72% and the “Competition at 1 μM (%)” value is 86%.
The corresponding values for `Cc1c2c(nn1-c1ccc(N3CC[C@H](F)C3)nc1)CN(c1ccncc1)C2=O` [Example 93] are 12% and 47%.
The corresponding values for `O=C1c2cn(-c3ccc(N4CCCC4)nc3)nc2CN1c1ccnc(F)c1` [Example 41] are 61% and 93%.
The corresponding values for `CC(C)c1ccc(-n2cc3c(n2)CN(c2cncc(F)n2)C3=O)cn1` [Example 153] are 31% and 57%.
For `O=C1c2cn(-c3ccc(N4CC[C@@H](F)C4)nc3)nc2CN1c1cnsc1` [Example 131], the “Competition at 100 nM (%)” value is 72% and the “Competition at 1 μM (%)” value came out at 98%.
For the compound `O=C1c2cn(-c3ccc(N4CC[C@H](F)C4)cc3)nc2CN1c1cccnc1` [Example 87], the “Competition at 100 nM (%)” value is on record as 67%, the “Competition at 1 μM (%)” value came to 92% and the affinity corresponds to a Ki of 15 nM.
The corresponding values for `Cc1ccc(N2Cc3nn(-c4ccc(N5CC[C@@H](F)C5)nc4)cc3C2=O)cn1` [Example 10] are 58%, 90% and 61 nM.
Consider `O=C1c2cn(-c3ccc(N4CC[C@@H](F)C4)nc3)nc2CN1c1ccc(F)cc1` [Example 63], for which the “Competition at 100 nM (%)” value is listed as 79% and the “Competition at 1 μM (%)” value is 96%.
For `COc1ccccc1N1Cc2nn(-c3ccc(N4CC[C@@H](F)C4)nc3)cc2C1=O` [Example 62], in that order: 8% and 27%.
In the case of `O=C1c2cn(-c3ccc(N4CC[C@H](F)C4)nc3)nc2CN1c1ccc(O)cc1` [Example 179], the “Competition at 100 nM (%)” value worked out at 80% and the “Competition at 1 μM (%)” value was 95%.
Regarding `Cc1c2c(nn1-c1ccc(N3CCCC3)nc1)CN(c1cncc(F)n1)C2=O` [Example 146], the “Competition at 100 nM (%)” value is recorded as 32% and the “Competition at 1 μM (%)” value is recorded as 53%.
On to `Cn1cnc(N2Cc3nn(-c4ccc(N5CC[C@@H](F)C5)nc4)cc3C2=O)c1` [Example 133], for which the “Competition at 100 nM (%)” value worked out at 59%.
As for `COc1cccc(N2Cc3nn(-c4ccc(N5CC[C@@H](F)C5)nc4)cc3C2=O)n1` [Example 74], the “Competition at 100 nM (%)” value was 22% and the “Competition at 1 μM (%)” value turned out to be 39%.
For `O=C1c2cn(-c3ccc(N4CC[C@H](F)C4)nc3)nc2CN1c1cnsc1` [Example 132], in that order: 63% and 93%.
The corresponding values for `O=C1c2cn(-c3ccc(N4CCCC4)nc3)nc2CN1c1ncccc1F` [Example 103] are 41% and 70%.
For `O=C1c2cn(-c3ccc(N4CC[C@@H](F)C4)nc3)nc2CN1c1ccc(O)cc1` [Example 180], in that order: 77% and 96%.
In the case of `O=C1c2cn(-c3ccc(N4CC[C@H](F)C4)nc3)nc2CN1c1cncs1` [Example 128], the “Competition at 100 nM (%)” value was 55% and the “Competition at 1 μM (%)” value is on record as 85%.
The corresponding values for `O=C1c2cn(-c3ccc(N4CC[C@H](F)C4)nc3)nc2CN1c1cccc(O)c1` [Example 178] are 77% and 103%.
Take `Cc1ccc(N2Cc3nn(-c4ccc(N5CC[C@H](F)C5)nc4)cc3C2=O)cc1` [Example 35]: the “Competition at 100 nM (%)” value is 73%.
On to `Cc1cccc(N2Cc3nn(-c4ccc(N5CC[C@H](F)C5)nc4)cc3C2=O)c1` [Example 38], for which the “Competition at 100 nM (%)” value was 70%.
In the case of `O=C1c2cn(-c3ccc(N4CC[C@@H](F)C4)cn3)nc2CN1c1cccnc1` [Example 66], the “Competition at 100 nM (%)” value amounted to 72% and the “Competition at 1 μM (%)” value was 92%.
On to `N#Cc1cc(N2Cc3nn(-c4ccc(N5CCCC5)nc4)cc3C2=O)ccc1F` [Example 46], for which the “Competition at 100 nM (%)” value came out at 61%.
For the compound `N#Cc1ccc(-n2cc3c(n2)CN(c2cccc(F)n2)C3=O)cn1` [Example 156], the “Competition at 100 nM (%)” value is 80% and the “Competition at 1 μM (%)” value is on record as 85%.
For `O=C1c2cn(-c3ccc(N4CC[C@@H](F)C4)nc3)nc2CN1c1ncco1` [Example 137], in that order: 35% and 84%.
`O=C1c2cn(-c3ccc(N4CCCC4)nc3)nc2CN1c1cccc(F)n1` [Example 140]: the “Competition at 100 nM (%)” value is 67%.
On to `CC(C)n1cc(N2Cc3nn(-c4ccc(N5CC[C@@H](F)C5)nc4)cc3C2=O)cn1` [Example 117], for which the “Competition at 100 nM (%)” value is listed as 17% and the “Competition at 1 μM (%)” value was 67%.
In the case of `N#Cc1ccc(N2Cc3nn(-c4ccc(N5CC[C@@H](F)C5)nc4)cc3C2=O)nc1` [Example 33], the “Competition at 100 nM (%)” value worked out at 75%.
Consider `O=C1c2cn(-c3ccc(N4CC[C@@H](F)C4)nc3)nc2CN1c1cncnc1` [Example 14], for which the “Competition at 100 nM (%)” value was 42% and the “Competition at 1 μM (%)” value is 77%.
For `COc1ccc(N2Cc3nn(-c4ccc(N5CC[C@H](F)C5)nc4)cc3C2=O)cc1` [Example 30], in that order: 80% and 95%.
For `O=C1c2cn(-c3ccc(N4CCC[C@H](F)C4)nc3)nc2CN1c1cccnc1` [Example 43], in that order: 47% and 88%.
For `Cc1cc(N2Cc3nn(-c4ccc(N5CC[C@@H](F)C5)nc4)cc3C2=O)ccn1` [Example 102], in that order: 59% and 68%.
`O=C1c2cn(-c3ccc(N4CC[C@@H](F)C4)nc3)nc2CN1c1nccs1` [Example 134]: the “Competition at 100 nM (%)” value is 74%.
In the case of `Cc1c2c(nn1-c1ccc(N3CCCC3)nc1)CN(c1cccc(F)n1)C2=O` [Example 144], the “Competition at 100 nM (%)” value is listed as 49% and the “Competition at 1 μM (%)” value was 68%.
On to `CC(C)Oc1ccc(-n2cc3c(n2)CN(c2cccc(F)n2)C3=O)cn1` [Example 160], for which the “Competition at 100 nM (%)” value came to 51% and the “Competition at 1 μM (%)” value was found to be 73%.
For the compound `O=C1c2cn(-c3ccc(NC4CC(F)C4)nc3)nc2CN1c1ccncc1` (stereo not drawn) [Example 90], the “Competition at 100 nM (%)” value was 18% and the “Competition at 1 μM (%)” value amounted to 51%.
Regarding `Cn1ccc(N2Cc3nn(-c4ccc(N5CC[C@H](F)C5)nc4)cc3C2=O)n1` [Example 118], the “Competition at 100 nM (%)” value turned out to be 61% and the “Competition at 1 μM (%)” value came to 94%.
For `Cn1ccc(N2Cc3nn(-c4ccc(N5CC[C@@H](F)C5)nc4)cc3C2=O)n1` [Example 116], in that order: 71% and 97%.
The corresponding values for `O=C1c2cn(-c3ccc(N4CCCC4)nc3)nc2CN1c1cccnc1F` [Example 39] are 43% and 66%.
Turning to `N#Cc1ccnc(N2Cc3nn(-c4ccc(N5CC[C@H](F)C5)nc4)cc3C2=O)c1` [Example 88], the “Competition at 100 nM (%)” value was found to be 75%.
